# Key:
# [1] = test system: Human sperm; experiment: Human sperm freezing and thawing, motility; assay type: cell-based; details: 2 M, cryoprotectant not removed
# Protocol: Human sperm was exposed to 2 M Veg solutes or 2 M glycerol near 0° C. using gradual addition methods, then frozen, thawed, and videotaped without removing the cryoprotectant.
# [2] = test system: rabbit renal cortical slices; experiment: Toxicity of cryoprotectant solutions to rabbit renal cortical slices (K/Na ratio after exposure, washout and 90 min at 25° C.); assay type: cell-based
# Source text: FIGS. 1 and 2 display a reanalysis (performed in early July of 1998) of public information (Fahy, Levy, and Ali, Cryobiology 24: 196213, 1987) on the toxicity of several vitrification solutions of known composition. These vitrification solutions will vitrify at 1,000 atmospheres and contain either 6% polyvinyl pyrrolidone of relative molecular mass 40 kDa [PVP K30] or 6% polyethylene glycol [PEG 8000]. The data set is advantageous because all solutions analyzed are vitrifiable, the data set has low standard errors, and toxicity was convincingly dissociated from osmotic factors (see Fahy, Levy, and Ali, 1987, for discussion). In this example, viability was defined by the ratio of primarily intracellular potassium to intracellular sodium (K/Na ratio) after cryoprotectant washout and active metabolism for 90 min at the optimum temperature of 25° C. The test system was rabbit renal cortical slices.
# […] Each step is 20 min except for 1X step, which is 40 min. All steps done at 0° C.
# [3] = Glass-forming tendency: concentration needed to vitrify (Cv), Q and qv*; assay type: physicochemical; details: for Moles of water/mole of CPA (10/Q): pure CPA at Cv; for qv* (Moles of water/mole of polar groups at Cv): pure CPA, Table 1
# Source text: The qv* method for identifying useful cryoprotectant solutions based on this concentration scale is: to select at least one cryoprotectant whose qv* is below 2.0, include it in a mixture with other cryoprotectants, determine the Cv of the resulting mixture in the normal way (see, for example, Fahy et al, Cryobiology 21: 407-426, 1984), calculate q* at Cv (qv*) (note: the number of moles of water can be readily determined from the weight of a given volume of solution minus the number of grams of all solutes, i.e., from the number of grams of water per unit volume or per unit weight), compare the resulting qv* value to the qv* values of alternative cryoprotectant solutions, and selecting lower qv* value solutions in general preference to higher qv* solutions. qv* values can be estimated adequately from published Q values by estimating that the densities of all solution components as pure substances are unchanged by being in solution with other substances (the validity of a similar approach in deriving Q from % w/v concentrations is discussed in Fahy, in: Low Temperature Biotechnology: Emerging Applications and Engineering Contributions, J.J. McGrath and K. R. Diller, eds, ASME, 1988, pp. 113146.)
# “Cv” is the concentration needed to vitrify 5-10 ml of solution at a cooling rate of about 10° C./min.
# “qv*=[(#moles of water)/(mole]/[(# polar groups)/(mole cryoprotectant)] or
# qv*=(#moles of water per unit volume or per unit mass of solution)/(# moles of polar groups on penetrating cryoprotectants per unit volume or unit mass of solution) at Cv”.
# [4] = cited from earlier work; for Q (moles of CPA per 10 moles of water): pure CPA at Cv
# [5] = test system: rat hepatocytes; experiment: Rat hepatocytes in suspension, trypan blue dye exclusion after cryoprotectant exposure or freezing to −140° C.; assay type: cell-based; details: 10% v/v
# Protocol: A recent freezing experiment compared freezing of rat hepatocytes in suspension to −140° C. in the presence of either 10% v/v DMSO or 10% v/v Veg solutes. Relative to the initial viability, 98% of the Veg-treated, non-frozen hepatocytes were able to exclude trypan blue dye, whereas only 70% of the DMSO-treated, non-frozen hepatocytes retained their dye exclusion capability after addition and removal of DMSO alone. After freezing and thawing, 65% of the initial number of freshly isolated hepatocytes remained capable of excluding trypan blue dye, whereas only 60% of frozen-thawed hepatocytes retained this ability when frozen with DMSO.
# [6] = test system: rabbit kidney slices; experiment: Freezing of rabbit kidney slices to −130° C., K/Na ratio after freezing and thawing; assay type: cell-based; details: 30% w/v cryoprotectant, frozen to −130° C.
# Protocol: A recent freezing experiment compared freezing of rabbit kidney slices to −130° C. in the presence of either 30% w/v DMSO or 30% w/v Veg solutes. The K/Na ratio after freezing and thawing in DMSO was 2.46+/−0.30, whereas the K/Na ratio after freezing and thawing in 30% w/v Veg solutes was 3.10+/−0.07 (p<0.05).
Compound,Moles of water/mole of CPA (10/Q) [3],qv* (Moles of water/mole of polar groups at Cv) [3],Q (moles of CPA per 10 moles of water) [4],further results
OCC(O)CO [glycerol],,,,sperm motility after freezing and thawing [1]: largely quiescent upon thawing
OCCO [Ethylene glycol],3.0,1.4,3.3 moles of CPA per 10 moles of water,"recovery (viability, FIG. 3) ([2]; at Cv, EuroCollins vehicle): less than 50%; concentrations not overtly harmful ([2]; in D(1)F-EG mixtures): ≤ 30 % w/v"
"C[S+](C)[O-] [DMSO, dimethyl sulfoxide]",,,,"hepatocytes capable of excluding trypan blue dye, of the initial number of freshly isolated hepatocytes ([5]; after freezing to −140° C. and thawing): 60%; hepatocytes able to exclude trypan blue dye, relative to the initial viability ([5]; non-frozen, after addition and removal): 70%; K/Na ratio after freezing and thawing [6]: 2.46+/−0.30"
"O=C(CO)CO [1,3-dihydroxyacetone]",5,1.7,,
CNC=O [N-Methyl-Formamide],2.6,1.3,3.9 moles of CPA per 10 moles of water,
"OCCCO [1,3-propanediol]",3.2,1.6,3.1 moles of CPA per 10 moles of water,
"CC(O)CO (centres unmarked) [1,2-propanediol]",,,,"qv* ([3]; pure agent, b117): about 2.6"
"CC(=O)CO [Acetol, hydroxyacetone]",2.8,1.4,3.6 moles of CPA per 10 moles of water,
CC(N)=O [Acetamide],2.4,1.2,4.1 moles of CPA per 10 moles of water,
NC=O [formamide],,,,"maximum concentration associated with minimal injury ([2]; in D(1)F-EG mixtures, 57-58% w/v total): about 14%; vitrification of aqueous solutions ([4]; agent alone): do not vitrify"

# From US6395467B1 (priority 1998, dated 2002)
